What is called CC50 is the concentration that lowers cell viability or growth by half.

Experimental findings from ChEMBL document CHEMBL4513139, “CO-ADD screening of University of Strathclyde (UK) compounds” are described below.

Converted amounts (≈) assume the structure as drawn.

One experiment relates to HEK293. Description: cells. The class given is functional, Homo sapiens, ATCC CRL1573. The note with it: Homo sapiens, ATCC CRL1573, HEK293; ASSAY_TEST Inhibition of Cell Viability; detection method Resazurin; Fluorescence (ex560/em590); MEDIA DMEM with 10% FBS; plate type 384well; TC; CORNING #3712; time 18 hr; read-out: CC50. On the technique in general: Alamar Blue is a resazurin reagent that responds to reducing activity.

A further experiment has as its system Staphylococcus aureus. Description: microbe, parasite or virus in culture. The note with it: ATCC 43300, 18 h, ASSAY_TEST Inhibition of Bacterial Growth, detection method Absorption (OD600), MEDIA CAMHB, plate type 384well, NBS, CORNING #3640.
A further experiment deals with Escherichia coli. Briefly: microbe, parasite or virus in culture. Conditions: ATCC 25922, 18 h, ASSAY_TEST Inhibition of Bacterial Growth, detection method Absorption (OD600), MEDIA CAMHB, plate type 384well, NBS, CORNING #3640.
The test system of the next experiment is Klebsiella pneumoniae. Briefly: microbe, parasite or virus in culture. Conditions: ATCC 700603, 18 h, ASSAY_TEST Inhibition of Bacterial Growth, detection method Absorption (OD600), MEDIA CAMHB, plate type 384well, NBS, CORNING #3640.
The test system of another experiment is Pseudomonas aeruginosa. Briefly: microbe, parasite or virus in culture. Conditions: ATCC 27853, 18 h, ASSAY_TEST Inhibition of Bacterial Growth, detection method Absorption (OD600), MEDIA CAMHB, plate type 384well, NBS, CORNING #3640.
In the next experiment the test system is Acinetobacter baumannii. Description: microbe, parasite or virus in culture. The note with it: ATCC 19606, 18 h, ASSAY_TEST Inhibition of Bacterial Growth, detection method Absorption (OD600), MEDIA CAMHB, plate type 384well, NBS, CORNING #3640.
The subject of the next experiment is Candida albicans. Briefly: microbe, parasite or virus in culture. The note with it: ATCC 90028, ASSAY_TEST Inhibition of Fungal Growth, detection method Absorption (OD530), plate type 384well, NBS, CORNING #3640.

Description for Acinetobacter baumannii: Antibacterial activity against Acinetobacter baumannii ATCC 19606 (CO-ADD:GN_034); MIC in CAMBH media using NBS plates, by OD600
Description for Candida albicans: Antifungal activity against Candida albicans ATCC 90028 (CO-ADD:FG_001); MIC in YNB media using NBS plates, by OD630
Description for Cryptococcus neoformans: Antifungal activity against Cryptococcus neoformans H99 ATCC 208821 (CO-ADD:FG_002); MIC in YNB media using NBS plates, by Resazurin OD(600-570)
Description for Escherichia coli: Antibacterial activity against Escherichia coli ATCC 25922 (CO-ADD:GN_001); MIC in CAMBH media using NBS plates, by OD(600)
Description for Klebsiella pneumoniae: Antibacterial activity against Klebsiella pneumoniae MDR ATCC 70063 (CO-ADD:GN_003); MIC in CAMBH media using NBS plates, by OD(600)
Description for Pseudomonas aeruginosa: Antibacterial activity against Pseudomonas aeruginosa ATCC 27853 (CO-ADD:GN_042); MIC in CAMBH media using NBS plates, by OD(600)
Description for Staphylococcus aureus: Antibacterial activity against Staphylococcus aureus MRSA ATCC 43300 (CO-ADD:GP_020); MIC in CAMBH media, using NBS plates, by OD(600)

Take `Cn1cc(NC(=O)c2ccc(/C=C/c3ccncc3)cc2)cc1C(=O)Nc1cc(C(=O)NCCN2CCOCC2)n(CCCCl)c1.O=C(O)C(F)(F)F.O=C(O)C(F)(F)F`: in the experiment on HEK293, the CC50 came out at 2.7 µg/mL. For the same compound, the MIC against Cryptococcus neoformans is 16 µg/mL; against Staphylococcus aureus, > 32 µg/mL; against Escherichia coli it was > 32 µg/mL; in the experiment on Klebsiella pneumoniae, > 32 µg/mL; against Pseudomonas aeruginosa, > 32 µg/mL; against Acinetobacter baumannii, > 32 µg/mL. The MIC in the experiment with Candida albicans was > 32 µg/mL.
Turning to `COc1ccc(/C=C/c2ccc(C(=O)Nc3cc(C(=O)Nc4cc(C(=O)NCCN5CCOCC5)n(C)c4)n(C)c3)cn2)cc1.O=C(O)C(F)(F)F.O=C(O)C(F)(F)F`, in the experiment with HEK293, the cytotoxic concentration (CC50) was found to be 27.1 µg/mL. The MIC with Cryptococcus neoformans, against Staphylococcus aureus, against Escherichia coli, against Klebsiella pneumoniae, in the experiment with Pseudomonas aeruginosa and against Acinetobacter baumannii was > 32 µg/mL each time. The MIC in the experiment with Candida albicans is > 32 µg/mL.
As to `Cn1cc(NC(=O)c2ccc(/C=C/c3cnc4ccccc4c3)cc2)cc1C(=O)Nc1nc(C(=O)NCCN2CCOCC2)c(CCc2ccccc2)s1.O=C(O)C(F)(F)F.O=C(O)C(F)(F)F`, in the experiment with HEK293, the cytotoxic concentration (CC50) was > 32 µg/mL. Besides, the MIC against Cryptococcus neoformans, in the experiment on Staphylococcus aureus, against Escherichia coli, with Klebsiella pneumoniae, in the experiment with Pseudomonas aeruginosa and in the experiment on Acinetobacter baumannii was > 32 µg/mL each time. Further, the MIC with Candida albicans is > 32 µg/mL.
Turning to `COC1CCN(CCNC(=O)c2cc(NC(=O)c3cc(NC(=O)c4ccc(/C=C/c5cnc6ccccc6c5)cc4)cn3C)cn2C)CC1`, the half-maximal cytotoxic concentration (CC50) with HEK293 worked out at 2.89 µg/mL (≈ 4.38 µM). Also, the MIC against Cryptococcus neoformans was 16 µg/mL; in the experiment on Staphylococcus aureus it was ≤ 0.25 µg/mL; against Escherichia coli, > 32 µg/mL; with Klebsiella pneumoniae, > 32 µg/mL; against Pseudomonas aeruginosa it was > 32 µg/mL; in the experiment on Acinetobacter baumannii it was > 32 µg/mL. Besides, the MIC against Candida albicans was 32 µg/mL.
For `COC1CCN(CCNC(=O)c2cc(NC(=O)c3cc(NC(=O)c4ccc(/C=C/c5ccc(N(C)C)cc5)nc4)cn3C)cn2C)CC1.O=C(O)C(F)(F)F.O=C(O)C(F)(F)F`, the cytotoxic concentration (CC50) with HEK293 was found to be 1.28 µg/mL. The MIC was 2 µg/mL against Cryptococcus neoformans; ≤ 0.25 µg/mL in the experiment on Staphylococcus aureus; > 32 µg/mL with Escherichia coli; > 32 µg/mL with Klebsiella pneumoniae; > 32 µg/mL against Pseudomonas aeruginosa; > 32 µg/mL in the experiment with Acinetobacter baumannii. Also, the MIC in the experiment on Candida albicans turned out to be 2 µg/mL.
In the case of `Cn1cc(NC(=O)c2ccc(/C=C/c3ccncc3)cc2)cc1C(=O)Nc1cc(C(=O)NCCN2CCOCC2)n(CCCN2CCN(Cc3cccc4ccccc34)CC2)c1.O=C(O)C(F)(F)F.O=C(O)C(F)(F)F.O=C(O)C(F)(F)F.O=C(O)C(F)(F)F`, in the experiment with HEK293, the CC50 worked out at 2.03 µg/mL. For the same compound, the MIC is 2 µg/mL with Cryptococcus neoformans; > 32 µg/mL in the experiment with Staphylococcus aureus; > 32 µg/mL in the experiment with Escherichia coli; > 32 µg/mL in the experiment on Klebsiella pneumoniae; > 32 µg/mL with Pseudomonas aeruginosa; > 32 µg/mL against Acinetobacter baumannii. The MIC with Candida albicans is 32 µg/mL.
Turning to `COCCOC1CCN(CCNC(=O)c2cc(NC(=O)c3cc(NC(=O)c4ccc(/C=C/c5ccc(OC)cc5)nc4)cn3C)cn2C)CC1`, the half-maximal cytotoxic concentration (CC50) in the experiment with HEK293 was determined as 3 µg/mL (≈ 4.39 µM). In addition, the MIC is > 32 µg/mL in the experiment on Cryptococcus neoformans; 2 µg/mL in the experiment on Staphylococcus aureus; > 32 µg/mL against Escherichia coli; > 32 µg/mL against Klebsiella pneumoniae; > 32 µg/mL in the experiment with Pseudomonas aeruginosa; > 32 µg/mL in the experiment on Acinetobacter baumannii. Further, in the experiment on Candida albicans, the MIC is > 32 µg/mL.
With `Cn1cc(NC(=O)c2cc(NC(=O)c3ccccc3)cn2C)cc1C(=O)NCCC(=N)N.O=C(O)C(F)(F)F`, the CC50 with HEK293 is 7.43 µg/mL. In addition, the MIC in the experiment on Cryptococcus neoformans, in the experiment with Staphylococcus aureus, with Escherichia coli, in the experiment on Klebsiella pneumoniae, in the experiment on Pseudomonas aeruginosa and with Acinetobacter baumannii was > 32 µg/mL in each case. The MIC against Candida albicans was > 32 µg/mL.
On to `COc1ccc(C(=N)Nc2cc(C(=O)Nc3cc(C(=O)NCCN4CCOCC4)n(CCCc4cn(CCc5ccccc5)nn4)c3)n(C)c2)cc1.O=C(O)C(F)(F)F.O=C(O)C(F)(F)F`, for which, in the experiment on HEK293, the CC50 was > 32 µg/mL. The MIC in the experiment with Cryptococcus neoformans, in the experiment on Staphylococcus aureus, against Escherichia coli, against Klebsiella pneumoniae, in the experiment with Pseudomonas aeruginosa and with Acinetobacter baumannii was > 32 µg/mL each time. Also, in the experiment with Candida albicans, the MIC is > 32 µg/mL.
Take `CN(C)c1ccc(/C=C/c2ccc(C(=O)Nc3cc(C(=O)Nc4cc(C(=O)NCCN5CCOCC5)n(C)c4)n(C)c3)cn2)cc1.O=C(O)C(F)(F)F`: the CC50 in the experiment with HEK293 turned out to be 1.11 µg/mL. In addition, the MIC was 1 µg/mL against Cryptococcus neoformans; 1 µg/mL against Staphylococcus aureus; > 32 µg/mL in the experiment on Escherichia coli; > 32 µg/mL in the experiment with Klebsiella pneumoniae; > 32 µg/mL in the experiment with Pseudomonas aeruginosa; > 32 µg/mL against Acinetobacter baumannii. Besides, the MIC against Candida albicans worked out at 2 µg/mL.
For `COc1ccc(/C=C/c2ccc(C(=O)Nc3cc(C(=O)Nc4cc(C(=O)NCCN5CCOCC5)n(CCCc5cn(CCc6ccccc6)nn5)c4)n(C)c3)cn2)cc1`, in the experiment with HEK293, the CC50 is > 32 µg/mL. Moreover, the MIC in the experiment on Cryptococcus neoformans, in the experiment with Staphylococcus aureus, in the experiment on Escherichia coli, with Klebsiella pneumoniae, with Pseudomonas aeruginosa and against Acinetobacter baumannii was > 32 µg/mL in each case. The MIC against Candida albicans was > 32 µg/mL.
For `COCCOC1CCN(CCNC(=O)c2cc(NC(=O)c3cc(NC(=O)c4ccc(/C=C/c5ccc(OC)cc5)cc4)cn3C)cn2C)CC1.O=S(=O)(O)O`, the CC50 in the experiment on HEK293 stood at 1.57 µg/mL. Further, the MIC was > 32 µg/mL against Cryptococcus neoformans; 16 µg/mL in the experiment with Staphylococcus aureus; > 32 µg/mL in the experiment on Escherichia coli; > 32 µg/mL with Klebsiella pneumoniae; > 32 µg/mL in the experiment with Pseudomonas aeruginosa; > 32 µg/mL against Acinetobacter baumannii. For the same compound, the MIC in the experiment with Candida albicans is > 32 µg/mL.
Take `COc1cccc(C(=N)Nc2cc(C(=O)Nc3nc(C(=O)NCCN4CCOCC4)c(CCc4ccccc4)s3)n(C)c2)c1.O=C(O)C(F)(F)F.O=C(O)C(F)(F)F`: the CC50 in the experiment on HEK293 came to 2.59 µg/mL. In addition, the MIC is 16 µg/mL against Cryptococcus neoformans; 32 µg/mL in the experiment with Staphylococcus aureus; > 32 µg/mL against Escherichia coli; > 32 µg/mL against Klebsiella pneumoniae; > 32 µg/mL in the experiment on Pseudomonas aeruginosa; > 32 µg/mL against Acinetobacter baumannii. Besides, the MIC in the experiment on Candida albicans is > 32 µg/mL.
As to `COc1cccc(/C=C/c2ccc(C(=O)Nc3cc(C(=O)Nc4cc(C(=O)NCCN5CCC(O)CC5)n(C)c4)n(C)c3)cc2)c1.O=C(O)C(F)(F)F`, the CC50 in the experiment on HEK293 came to 11.7 µg/mL. Besides, the MIC with Cryptococcus neoformans was > 32 µg/mL; against Staphylococcus aureus, 16 µg/mL; in the experiment on Escherichia coli it was > 32 µg/mL; against Klebsiella pneumoniae it was > 32 µg/mL; in the experiment with Pseudomonas aeruginosa, > 32 µg/mL; in the experiment with Acinetobacter baumannii, > 32 µg/mL. Also, the MIC in the experiment with Candida albicans is > 32 µg/mL.
In the case of `Cn1cc(NC(=O)c2ccc(/C=C/c3ccncc3)cc2)cc1C(=O)Nc1cc(C(=O)NCCN2CCOCC2)n(CCCN2CCOCC2)c1.O=C(O)C(F)(F)F.O=C(O)C(F)(F)F`, in the experiment with HEK293, the CC50 was 4.65 µg/mL. Also, the MIC was > 32 µg/mL in the experiment on Cryptococcus neoformans; 4 µg/mL against Staphylococcus aureus; > 32 µg/mL in the experiment on Escherichia coli; > 32 µg/mL with Klebsiella pneumoniae; > 32 µg/mL in the experiment on Pseudomonas aeruginosa; > 32 µg/mL in the experiment with Acinetobacter baumannii. Moreover, the MIC in the experiment with Candida albicans is > 32 µg/mL.
In the case of `COc1cccc(/C=C/c2ccc(C(=O)Nc3cc(C(=O)Nc4cc(C(=O)NCCN5CCOCC5)n(CCCc5cn(CCc6ccccc6)nn5)c4)n(C)c3)cc2)c1.O=C(O)C(F)(F)F`, the CC50 with HEK293 is > 32 µg/mL. In addition, the MIC with Cryptococcus neoformans was 32 µg/mL; against Staphylococcus aureus it was > 32 µg/mL; in the experiment on Escherichia coli it was > 32 µg/mL; in the experiment on Klebsiella pneumoniae, > 32 µg/mL; against Pseudomonas aeruginosa, > 32 µg/mL; in the experiment on Acinetobacter baumannii, > 32 µg/mL. Besides, the MIC against Candida albicans was > 32 µg/mL.
For `COc1ccc(/C=C/c2ccc(C(=O)Nc3cc(C(=O)Nc4cc(C(=O)NCCN5CCC(OC)CC5)n(C)c4)n(C)c3)cc2)cc1.O=C(O)C(F)(F)F`, the CC50 in the experiment on HEK293 is 6.43 µg/mL. For the same compound, the MIC in the experiment with Cryptococcus neoformans, against Staphylococcus aureus, with Escherichia coli, in the experiment with Klebsiella pneumoniae, against Pseudomonas aeruginosa and against Acinetobacter baumannii was > 32 µg/mL throughout. In the experiment on Candida albicans, the MIC was > 32 µg/mL.
`Cn1cc(NC(=O)c2cc(NC(=N)c3ccccc3)cn2C)cc1C(=O)NCCC(=N)N.O=C(O)C(F)(F)F.O=C(O)C(F)(F)F`: the CC50 with HEK293 is > 32 µg/mL. The MIC in the experiment on Cryptococcus neoformans, against Staphylococcus aureus, with Escherichia coli, against Klebsiella pneumoniae, with Pseudomonas aeruginosa and with Acinetobacter baumannii was > 32 µM in each case. The MIC against Candida albicans is > 32 µM.
Regarding `Cn1cc(NC(=O)c2ccc(/C=C/c3ccncc3)cc2)cc1C(=O)Nc1cc(C(=O)NCCN2CCOCC2)n(CCCSc2ccccc2)c1.O=C(O)C(F)(F)F.O=C(O)C(F)(F)F`, the 50% cytotoxic concentration (CC50) with HEK293 was > 32 µg/mL. For the same compound, the MIC in the experiment on Cryptococcus neoformans, in the experiment with Staphylococcus aureus, in the experiment on Escherichia coli, against Klebsiella pneumoniae, against Pseudomonas aeruginosa and with Acinetobacter baumannii was > 32 µg/mL in each case. Further, the MIC against Candida albicans is > 32 µg/mL.
